Measured values taken from patent US6894075B2, “4′-demethyl-4′-O-substituted-1-deoxypodophyllotoxin derivative and geometric isomer thereof, process for the preparation thereof and anti-cancer composition comprising the same” (priority 2000, dated 2005).
Several values for one entry are separate records, joined by “and”; a condition that tells them apart may be missing. Identical values can stand only once.

What was measured:
A549 cell = assay: Cytotoxicity test (SRB method) for A549 cells; type: cell-based, human; settings: for cytotoxicity compared with DPT: A549, in words; for EC50: A549 human lung cancer cell, SRB, read-out: ED50(nM) for A549
Text: (§1) Human lung carcinomas A549 and […] were used for determining cytotoxicity of the compounds of the present invention according to the Sulfrhodamine-B (SRB) method which was developed by NCI in 1989 in order to determine in vitro anticancer activity of drugs.
(§2) Cells to be used in the experiment were separated from a surface using 0.5% Trypsin-EDTA solution and suspended in a density of 5×10^4 cell/ml therein. The cell suspension was introduced into a 96-well plate in an amount of 180/well and incubated for 24 hours in a 5% CO2 incubator of 37° C. Samples were dissolved in dimethylsulfoxide and then diluted by water distilled in advance for three times just before the experiment. Forty-one (41) samples were prepared into 4 types of final concentrations, i.e., 0.1, 0.03, 0.01 and 0.003 mg per ml of the medium. The diluted sample solutions were added to the 96-well plate in the amount of 20 μl/well and incubated for 48 hours in a CO2 incubator of 37° C. At the time of adding the samples, Tz (Time zero) plate was taken. The medium was removed from the Tz plate and each of the plates after incubation were completed. Ten (10)% […] (TCA) was added in the amount of […], and allowed to stand for 1 hour at 4° C. to fix the cells on the bottom surface of the plate. After the cells were fixed, the plate was washed five to six times with water to completely remove the remaining TCA solution and then dried at room temperature to completely remove the moisture. To the fully dried plate was introduced a dye solution in the amount of […] in which 0.4% SRB was dissolved in 1% acetic acid solution. […] After the dyeing process, the plate was dried again at room temperature. 100 ml of 10 mM Tris solution was added thereto in order to dissolve the dye, and then O.D. (optical density) was determined by microplate reader at 520 nm.
(§3) ED50 values for cancer cells were calculated as follows. The amount of SRB protein was analyzed at the time when incubation started by the addition of the sample. This amount was named time zero (Tz). The O.D. value obtained from a group which was not treated by the sample was named Control group (C) and the O.D. value obtained from a group which was treated by the sample was named Test group (T).
(§4) The degree of cytotoxicity of the compounds was calculated from Tz, C and T values according to the following equation.
(§5) That is, in the case of Tz≧T, the degree was calculated by
(§6) (T−Tz)/(C−Tz)×100(%), and
(§7) • in the case of Tz<T, the degree was calculated by […].
(§8) From the values thus obtained, ED50 value which is defined as the concentration at which growth of the cancer cell is inhibited by 50% was calculated using the regression function of Excel program.

[1] = system: Lewis Lung Cancer Cell (LLC); assay: Anti-cancer test for BDF1 mouse transplanted by Lewis Lung Cancer Cell, Experiment 2-1 (formulae 1a, 1b); type: in vivo; settings: peritoneal injection 0.06 mmole/kg/day at days 1, 2, 4, 7, 8 (etoposide 36 mg/kg), cancer volume at 14 to 16 days
Text: In order to evaluate the anti-cancer activity of the compounds of the present invention, LLC, which is a lung cancer cell of mouse, was transplanted into the hypodermic region of BDF1 mouse to induce a solid cancer. […] Experiment for the compounds of formulae (1a) and (1b) and that for the compound of formula (1c) were separately carried out.
Male BDF1 mouse (Weight 18 to 25 g), being in good health and purchased from Korea Biolink Co., was used as a test animal.
The mice were bred at a place controlled to the temperature of 23 to 24° C. while provided with water and feed ad libitum. As the feed, feed for mouse containing no antibiotics was used. The hypodermic tissue of C57BL/6 mouse, which includes cells cultured therein for 14 days, was taken up. Sterilized cold physiological saline was added to the tissue in the amount of 5 ml/g tissue to make a cell suspension. This cell suspension of 0.2 ml was transplanted into the hypodermic region of armpit of BDF1 mouse.
(§9) Each group includes 5 mice. After 24 hours from the transplantation, each test compound of formulae (1a) and (1b) was dissolved in 4% Tween 80 and injected peritoneally in the amount of 0.2 ml and in a concentration of 0.06 mmole/kg/day (that is, 0.06 mmole of each test compound was dissolved in 10 ml of 4% Tween 80, and then 0.2 ml of the resulting solution was peritoneally injected into a mouse). Only 4% Tween 80 was injected for the negative control group, and the same moles of etoposide (36 mg/kg) was injected for the positive control group. The injection was performed five times at 1, 2, 4, 7 and 8 days from the transplantation of cancer.
The anti-cancer effect was determined by measuring the volume of cancer of the control and test groups at 14 to 16 days from the administration of drugs and then calculated as follows. Volume of Cancer(mm^3)=Length(mm)×Width^2(mm^2)/2 Suppression Rate of Cancer Growth(%)=(C−T)×100(%)/C in which • C represents the average volume of cancer (mm^3) of the control group, and • T represents the average volume of cancer (mm^3) of the test group.

[2] = Weight change in the period of drug administration; type: in vivo, mouse; settings: for Weight of mouse, Day 1: Day 1 from the cancer cell transplantation; for Weight of mouse, Day 2: Day 2 from the cancer cell transplantation; for Weight of mouse, Day 3: Day 3 from the cancer cell transplantation; for Weight of mouse, Day 4: Day 4 from the cancer cell transplantation; for Weight of mouse, Day 5: Day 5 from the cancer cell transplantation; for Weight of mouse, Day 6: Day 6 from the cancer cell transplantation; for Weight of mouse, Day 7: Day 7 from the cancer cell transplantation; for Weight of mouse, Day 8: Day 8 from the cancer cell transplantation
Description: as §9
As an index of toxicity, the weight change during the period of drug administration was recorded for the compounds of formulae (1a) and (1b) compared with the comparison compound of Etoposide.

SK-MEL-2 cell = assay: Cytotoxicity test (SRB method) for SK-MEL-2 cells; type: cell-based, human; settings: SK-MEL-2, SRB, 48 hours incubation
Text: as §1, §2, §3, §4, §5, §6, §7, §8

SMILES	cytotoxicity compared with DPT (A549 cell)	EC50 (A549 cell; 48 hours incubation) [nM]	Suppression Rate for LLC [1]	Weight of mouse, Day 1 [2] [g]	Weight of mouse, Day 2 [2] [g]	Weight of mouse, Day 3 [2] [g]	Weight of mouse, Day 4 [2] [g]	Weight of mouse, Day 5 [2] [g]	Weight of mouse, Day 6 [2] [g]	Weight of mouse, Day 7 [2] [g]	Weight of mouse, Day 8 [2] [g]	weight loss ([2]; compared with the control group, 8 days)	ED50(mg/mL) for A549 (A549 cell; A549, SRB, 48 hours incubation, Table 2) [mg/mL]	ED50(mg/mL) for SK-MEL-2 (SK-MEL-2 cell) [mg/mL]
COc1cc(C2c3cc4c(cc3CC3COC(=O)C32)OCO4)cc(OC)c1OC(=O)C(N)CC(C)C (centres unmarked) [Compound 1a-2, 4′-demethyl-4′-O-leucinoyl-1-deoxypodophyllotoxin]	stronger cytotoxicity than DPT	68	88%	23.3	24.3	25	26.1	26	25	25.3	26.1	–	–	–
COc1cc(C2c3cc4c(cc3CC3COC(=O)C32)OCO4)cc(OC)c1OC(=O)CCN (centres unmarked) [Compound 1a-10, 4′-demethyl-4′-O-(3-aminopropanoyl)-1-deoxypodophyllotoxin]	–	96.7	78%	22.9	24.1	25	25.1	25.5	25.3	25	25.3	–	–	–
COc1cc(C2c3cc4c(cc3CC3COC(=O)C32)OCO4)cc(OC)c1OC(=O)CCCN (centres unmarked) [Compound 1a-11, 4′-demethyl-4′-O-(4-aminobutanoyl)-1-deoxypodophyllotoxin]	–	91.6	82%	22.8	24	24.2	25	24.4	25.4	25.4	25.5	–	–	–
COc1cc(C2c3cc4c(cc3CC3COC(=O)C32)OCO4)cc(OC)c1OC(=O)CCCCN (centres unmarked) [Compound 1a-12, 4′-demethyl-4′-O-(5-aminopentanoyl)-1-deoxypodophyllotoxin]	–	90.3	82%	22.8	24.2	25	25.4	24.8	26	25.8	26.2	–	–	–
COc1cc(C2c3cc4c(cc3CC3COC(=O)C32)OCO4)cc(OC)c1OC(=O)CCCCCN (centres unmarked) [Compound 1a-13, 4′-demethyl-4′-O-(6-aminohexanoyl)-1-deoxypodophyllotoxin]	–	88.5	85% and 85.5%	23	24.2	25	25.2	25	25.5	26	26.2	–	–	–
COc1cc(C2c3cc4c(cc3CC3COC(=O)C32)OCO4)cc(OC)c1OC(=O)CCCCCCN (centres unmarked) [Compound 1a-14, 4′-demethyl-4′-O-(7-aminoheptanoyl)-1-deoxypodophyllotoxin]	–	79.6	90%	23	23.8	21.6	26	22.3	22.8	22.8	22.5	about 0.5 g/mouse	–	–
COc1cc(C2c3cc4c(cc3CC3COC(=O)C32)OCO4)cc(OC)c1OC(=O)CCCCCCCN (centres unmarked) [Compound 1a-15, 4′-demethyl-4′-O-(8-aminooctanoyl)-1-deoxypodophyllotoxin]	–	74.2	34.5%	–	–	–	–	–	–	–	–	–	–	–
COc1cc(C2c3cc4c(cc3CC3COC(=O)C32)OCO4)cc(OC)c1OC(=O)NC(C)C (centres unmarked) [Compound 1b-2, 4′-demethyl-4′-O-isopropylcarbamoyl-1-deoxypodophyllotoxin]	–	153	90% and 90.1%	22.8	23.6	23.2	25	25	26.1	26	26	–	–	–
COc1cc(C2c3cc4c(cc3CC3COC(=O)C32)OCO4)cc(OC)c1OC(=O)NCCCl (centres unmarked) [Compound 1b-3, 4′-demethyl-4′-O-(2-chloroethylcarbamoyl)-1-deoxypodophyllotoxin]	–	92	75%	23.3	23	23.6	24.5	26	25	26	25.8	–	–	–
COc1cc(C2c3cc4c(cc3CC3COC(=O)C32)OCO4)cc(OC)c1OC(=O)NC1CCCCC1 (centres unmarked) [Compound 1b-4, 4′-demethyl-4′-O-cyclohexylcarbamoyl-1-deoxypodophyllotoxin]	–	163	88%	23	23.9	25	26	25	26	26	25.5	–	–	–
COc1cc(C2c3cc4c(cc3CC3COC(=O)C32)OCO4)cc(OC)c1OC(=O)NCCO (centres unmarked) [Compound 1b-5, 4′-demethyl-4′-O-(2-hydroxyethyl)carbamoyl-1-deoxypodophyllotoxin]	stronger cytotoxicity than DPT	61.5	95.1%	23.4	23.8	22.2	23.8	23.4	23.8	23	23.2	–	–	–
COc1cc(C2c3cc4c(cc3CC3COC(=O)C32)OCO4)cc(OC)c1OC(=O)CCCCCCCCCCCCCCC(=O)O (centres unmarked) [Compound 1c-38, 4′-demethyl-4′-O-(15′-carboxy-pentadecanoyl)-1-deoxypodophyllotoxin]	–	–	–	–	–	–	–	–	–	–	–	–	0.106	0.027
